Measured values as given in patent US5648458A, “Peptides and compounds that bind to ELAM-1” (Affymax Technologies N.V., priority 1995, dated 1997).
Ends that are not written are not given here.

Biological target: T1, immobilized ELAM-1 (Homo sapiens, UniProt P16581)
T1 construct: truncated form comprising the complete extracellular domain (amino acids 1 through 554); made in house
T1 sequence (P16581 22-554): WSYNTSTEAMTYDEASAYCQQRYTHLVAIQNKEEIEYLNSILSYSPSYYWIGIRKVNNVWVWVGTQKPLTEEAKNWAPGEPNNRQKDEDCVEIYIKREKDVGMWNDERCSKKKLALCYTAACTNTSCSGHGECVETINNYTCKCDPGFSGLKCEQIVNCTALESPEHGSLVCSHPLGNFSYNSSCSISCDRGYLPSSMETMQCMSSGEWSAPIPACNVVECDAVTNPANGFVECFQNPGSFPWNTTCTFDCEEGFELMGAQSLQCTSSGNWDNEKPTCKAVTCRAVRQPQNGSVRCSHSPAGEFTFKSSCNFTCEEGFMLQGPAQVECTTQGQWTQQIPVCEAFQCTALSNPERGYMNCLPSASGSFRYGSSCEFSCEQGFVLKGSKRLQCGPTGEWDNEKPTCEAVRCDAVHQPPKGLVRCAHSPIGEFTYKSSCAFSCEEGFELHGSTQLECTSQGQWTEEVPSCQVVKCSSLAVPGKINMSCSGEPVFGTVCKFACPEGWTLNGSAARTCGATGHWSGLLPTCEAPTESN
Type: cell-based
Conditions: 200000.0
Method: The assay requires HL60 cells labeled with tritiated thymidine. […] The cells are then placed in a T75 flask and incubated at 37° C. for 24 hours. The cells are then collected by centrifugation, washed twice with RPMI/HEPES/0.1% FCS, and resuspended in the same solution at a concentration of about one to two million cells per mL. About 100 μL of this cell preparation are used per well of a 96-well microtiter dish in the assay. The wells of the microtiter dish were first coated with the anti-receptor immobilizing antibody, an anti-HPAP-tail antibody, using about 2.5 μg of antibody per well. […] Then, the wells were washed three times with RPMI 1640 plus 0.1% FCS using a multichannel pipettor.

HITWDQLWNVMN
blocking of HL60 cell binding, relative to binding in the absence of added compound: over 80%
